Data: article PMC8213057, “Targeting ALK2: An Open Science Approach to Developing Therapeutics for the Treatment of Diffuse Intrinsic Pontine Glioma” (Journal of Medicinal Chemistry, 2020)

Tests used:
[1] = biological target: FGFR2 (Homo sapiens, UniProt P21802); test: biochemical; settings: read-out: % enzyme activity, 1 μM; Run 1, Run 2
[2] = biological target: T1, EPHA6 (Homo sapiens, UniProt Q9UF33); settings: 1 μM; Run 1, Run 2
T1 sequence (Q9UF33 23-1036): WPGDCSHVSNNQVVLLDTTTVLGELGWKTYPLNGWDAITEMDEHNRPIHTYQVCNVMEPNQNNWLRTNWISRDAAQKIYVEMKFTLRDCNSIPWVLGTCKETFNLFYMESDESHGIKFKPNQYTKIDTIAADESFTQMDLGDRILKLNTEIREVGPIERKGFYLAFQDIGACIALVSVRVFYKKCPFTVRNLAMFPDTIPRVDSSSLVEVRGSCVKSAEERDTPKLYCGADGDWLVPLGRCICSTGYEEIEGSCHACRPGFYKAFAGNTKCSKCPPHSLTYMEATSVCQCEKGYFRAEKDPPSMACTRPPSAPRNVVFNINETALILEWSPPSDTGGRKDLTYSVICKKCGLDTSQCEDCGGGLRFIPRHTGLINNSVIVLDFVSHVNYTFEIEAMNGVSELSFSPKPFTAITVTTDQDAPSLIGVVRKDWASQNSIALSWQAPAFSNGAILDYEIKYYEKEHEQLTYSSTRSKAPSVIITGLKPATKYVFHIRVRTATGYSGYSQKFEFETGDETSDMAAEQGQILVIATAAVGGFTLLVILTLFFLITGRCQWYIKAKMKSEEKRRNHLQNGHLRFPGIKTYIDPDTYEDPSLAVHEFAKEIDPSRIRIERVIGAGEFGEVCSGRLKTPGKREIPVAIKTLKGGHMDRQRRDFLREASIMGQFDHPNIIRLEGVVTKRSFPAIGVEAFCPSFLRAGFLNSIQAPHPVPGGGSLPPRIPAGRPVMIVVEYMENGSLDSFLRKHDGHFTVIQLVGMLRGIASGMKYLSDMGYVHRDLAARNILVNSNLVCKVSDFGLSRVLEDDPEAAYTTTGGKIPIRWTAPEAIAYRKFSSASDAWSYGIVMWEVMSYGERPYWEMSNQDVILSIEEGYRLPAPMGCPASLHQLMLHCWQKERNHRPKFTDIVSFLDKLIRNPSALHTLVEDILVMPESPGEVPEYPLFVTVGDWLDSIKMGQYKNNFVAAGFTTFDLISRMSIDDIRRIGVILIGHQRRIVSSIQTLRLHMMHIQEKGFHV

[3] = biological target: T2, IKKb/IKBKB (Homo sapiens, UniProt O14920); test: biochemical; settings: read-out: % enzyme activity, 1 μM; Run 1, Run 2
T2 sequence (O14920 1-756): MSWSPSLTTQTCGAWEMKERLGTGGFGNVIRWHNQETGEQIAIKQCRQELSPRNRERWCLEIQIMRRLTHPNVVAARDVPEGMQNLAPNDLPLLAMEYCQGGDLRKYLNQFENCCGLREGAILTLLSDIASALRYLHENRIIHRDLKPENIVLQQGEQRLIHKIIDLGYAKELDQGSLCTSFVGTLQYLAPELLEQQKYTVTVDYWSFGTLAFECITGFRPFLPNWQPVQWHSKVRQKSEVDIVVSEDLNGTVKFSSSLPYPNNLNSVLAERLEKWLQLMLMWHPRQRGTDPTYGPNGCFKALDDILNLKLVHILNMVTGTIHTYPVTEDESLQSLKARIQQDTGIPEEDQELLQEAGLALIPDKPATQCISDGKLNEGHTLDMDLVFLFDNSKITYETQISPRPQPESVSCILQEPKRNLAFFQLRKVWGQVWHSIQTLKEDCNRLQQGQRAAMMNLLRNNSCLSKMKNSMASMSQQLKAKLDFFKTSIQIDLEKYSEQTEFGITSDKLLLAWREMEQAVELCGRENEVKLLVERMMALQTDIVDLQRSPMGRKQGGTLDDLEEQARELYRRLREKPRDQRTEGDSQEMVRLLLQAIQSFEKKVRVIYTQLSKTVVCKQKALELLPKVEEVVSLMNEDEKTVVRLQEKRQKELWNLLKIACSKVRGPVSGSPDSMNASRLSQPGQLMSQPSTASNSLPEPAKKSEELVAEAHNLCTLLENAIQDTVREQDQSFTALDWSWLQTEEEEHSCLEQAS

[4] = biological target: SRPK2 (Homo sapiens, UniProt P78362); test: biochemical; settings: read-out: % enzyme activity, 1 μM; Run 1, Run 2
[5] = biological target: CDK2/cyclin E (Homo sapiens, UniProt P24941); test: biochemical; settings: read-out: % enzyme activity, 1 μM; Run 1, Run 2
[6] = biological target: T3, VRK1 (Homo sapiens, UniProt Q99986); test: biochemical; settings: read-out: % enzyme activity, 1 μM; Run 1, Run 2
T3 sequence (Q99986 1-396): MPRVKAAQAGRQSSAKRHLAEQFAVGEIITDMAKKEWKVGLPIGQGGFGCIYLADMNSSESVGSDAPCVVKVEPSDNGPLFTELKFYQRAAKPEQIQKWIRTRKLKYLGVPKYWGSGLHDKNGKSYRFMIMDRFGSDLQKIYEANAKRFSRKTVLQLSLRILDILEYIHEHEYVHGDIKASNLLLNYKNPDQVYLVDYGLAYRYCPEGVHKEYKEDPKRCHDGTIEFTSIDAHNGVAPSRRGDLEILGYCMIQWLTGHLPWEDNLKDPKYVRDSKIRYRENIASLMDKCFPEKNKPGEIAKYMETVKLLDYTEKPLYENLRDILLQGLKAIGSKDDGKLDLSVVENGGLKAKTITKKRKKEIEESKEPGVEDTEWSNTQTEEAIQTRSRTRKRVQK

[7] = biological target: T4, CYP1A2 (Homo sapiens, UniProt P05177); test: CYP inhibition assay; type: in vitro ADME; settings: human liver microsomes
T4 construct: tissue Corning 452117; host or cells: pooled human liver microsomes (UltraPool HLM 150, mixed gender)
T4 sequence (P05177 whole entry): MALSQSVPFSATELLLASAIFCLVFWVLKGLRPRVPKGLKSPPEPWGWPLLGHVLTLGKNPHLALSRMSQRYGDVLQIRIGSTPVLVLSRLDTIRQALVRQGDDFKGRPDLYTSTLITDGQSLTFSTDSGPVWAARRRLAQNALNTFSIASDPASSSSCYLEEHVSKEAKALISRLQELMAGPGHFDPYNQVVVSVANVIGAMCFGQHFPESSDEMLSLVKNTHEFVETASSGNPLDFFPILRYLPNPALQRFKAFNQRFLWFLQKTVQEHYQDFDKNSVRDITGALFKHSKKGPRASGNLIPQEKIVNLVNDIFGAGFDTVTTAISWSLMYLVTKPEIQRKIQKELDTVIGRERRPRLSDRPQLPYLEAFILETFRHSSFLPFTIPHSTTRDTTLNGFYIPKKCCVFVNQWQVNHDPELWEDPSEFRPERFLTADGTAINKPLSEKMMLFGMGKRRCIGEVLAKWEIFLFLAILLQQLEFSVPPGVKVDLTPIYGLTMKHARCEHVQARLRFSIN

FGFR2, sequence (P21802 22-821): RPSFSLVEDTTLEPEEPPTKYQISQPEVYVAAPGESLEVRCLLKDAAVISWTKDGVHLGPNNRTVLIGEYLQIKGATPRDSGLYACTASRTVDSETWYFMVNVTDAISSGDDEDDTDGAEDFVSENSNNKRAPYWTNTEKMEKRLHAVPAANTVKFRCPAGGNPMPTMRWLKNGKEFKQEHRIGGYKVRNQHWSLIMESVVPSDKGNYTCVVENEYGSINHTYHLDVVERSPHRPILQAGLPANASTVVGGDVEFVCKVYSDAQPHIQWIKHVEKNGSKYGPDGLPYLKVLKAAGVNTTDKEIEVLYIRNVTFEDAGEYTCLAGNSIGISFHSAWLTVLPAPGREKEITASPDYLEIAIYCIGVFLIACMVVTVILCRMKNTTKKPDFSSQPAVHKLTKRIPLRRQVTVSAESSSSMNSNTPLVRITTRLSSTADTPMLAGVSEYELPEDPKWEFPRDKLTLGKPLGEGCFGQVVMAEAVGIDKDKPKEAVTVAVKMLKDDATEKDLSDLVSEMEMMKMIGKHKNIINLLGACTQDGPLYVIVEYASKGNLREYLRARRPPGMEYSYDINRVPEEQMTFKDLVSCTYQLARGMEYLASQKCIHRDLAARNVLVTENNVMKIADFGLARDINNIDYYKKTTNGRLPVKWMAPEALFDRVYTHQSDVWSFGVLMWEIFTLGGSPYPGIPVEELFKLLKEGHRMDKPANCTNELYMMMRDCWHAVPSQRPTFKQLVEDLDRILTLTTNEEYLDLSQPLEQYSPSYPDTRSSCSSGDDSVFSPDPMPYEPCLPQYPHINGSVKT
SRPK2, sequence (P78362 whole entry): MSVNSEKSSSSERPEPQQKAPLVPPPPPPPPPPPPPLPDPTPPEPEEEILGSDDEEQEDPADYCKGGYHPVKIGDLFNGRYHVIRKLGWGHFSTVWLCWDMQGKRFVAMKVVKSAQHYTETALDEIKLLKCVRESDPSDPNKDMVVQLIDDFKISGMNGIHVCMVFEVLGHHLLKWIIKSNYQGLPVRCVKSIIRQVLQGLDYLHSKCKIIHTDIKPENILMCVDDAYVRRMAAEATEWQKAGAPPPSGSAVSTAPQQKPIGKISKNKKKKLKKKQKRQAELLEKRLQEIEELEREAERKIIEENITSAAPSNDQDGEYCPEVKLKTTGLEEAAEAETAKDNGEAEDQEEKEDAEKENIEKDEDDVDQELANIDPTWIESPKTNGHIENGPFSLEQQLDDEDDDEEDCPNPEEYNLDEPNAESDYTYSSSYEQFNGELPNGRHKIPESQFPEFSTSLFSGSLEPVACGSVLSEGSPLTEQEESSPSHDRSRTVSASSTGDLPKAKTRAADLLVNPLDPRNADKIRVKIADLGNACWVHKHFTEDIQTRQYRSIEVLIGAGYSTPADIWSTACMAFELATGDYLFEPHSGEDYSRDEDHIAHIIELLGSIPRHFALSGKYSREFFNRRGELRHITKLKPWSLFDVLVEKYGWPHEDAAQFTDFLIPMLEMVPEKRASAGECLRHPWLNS

Structure (SMILES) | remaining activity at 1 µM [1] | % enzyme activity [2] | remaining activity at 1 µM [3] | remaining activity at 1 µM [4] | remaining activity at 1 µM [5] | remaining activity at 1 µM [6] | IC50 [7]
COc1cc(-c2cncc(-c3ccc(N4CCN(C)CC4)cc3)c2C)cc(F)c1C(N)=O [Compound 26a, 2-Fluoro-6-methoxy-4-(4-methyl-5-(4-(4-methylpiperazin-1-yl)phenyl)pyridin-3-yl)benzamide] | 95.5% | 103.54% | 104% | 97.8% | 105% | 104% | > 50 µM
COc1cc(-c2cncc(-c3ccc(N4C[C@@H](C)N(C)[C@@H](C)C4)cc3)c2C)cc(F)c1C(N)=O [Compound 26c, 2-Fluoro-6-methoxy-4-(4-methyl-5-(4-((3R,5S)-3,4,5-trimethylpiperazin-1-yl)phenyl)pyridin-3-yl)benzamide] | 91.9% | 103.73% | 101% | 121% | 102% | 102% | > 50 µM
